In patent EP0443568B1, “Fused thiophene derivatives, their production and use” (Takeda Chemical Industries, Ltd., priority 1990, dated 1991):

Tests used:
A-II-receptor = target: T1, A-II-receptor (Bos taurus, UniProt P25104); test: Inhibition of binding of angiotensin-II to angiotensin receptor (radio receptor assay, 125I-A-II); conditions: membrane fraction of bovine adrenal cortex, room temperature, one hour, read-out: Radio Receptor Assay IC₅₀
T1 construct: An A-II-receptor was prepared from the membrane fraction of bovine adrenal cortex; from tissue; host or cells: bovine adrenal cortex membrane fraction
T1 sequence (P25104 1-359): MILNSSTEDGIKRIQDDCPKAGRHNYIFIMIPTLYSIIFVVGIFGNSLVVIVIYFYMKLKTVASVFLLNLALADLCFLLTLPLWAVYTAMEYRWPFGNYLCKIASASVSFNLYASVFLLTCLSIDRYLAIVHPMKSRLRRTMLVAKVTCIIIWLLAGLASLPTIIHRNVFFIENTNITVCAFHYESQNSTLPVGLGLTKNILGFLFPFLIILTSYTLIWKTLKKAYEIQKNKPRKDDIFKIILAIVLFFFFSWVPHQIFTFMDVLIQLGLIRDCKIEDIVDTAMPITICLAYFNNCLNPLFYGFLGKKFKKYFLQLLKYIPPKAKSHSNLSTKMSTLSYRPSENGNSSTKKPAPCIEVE
Description: An experiment of inhibition on the binding of angiotensin-II (A-II) to A-II-receptor was conducted by modifying the method of Douglas et al. [Endocrinology, 102, 685-696 (1978)]. An A-II-receptor was prepared from the membrane fraction of bovine adrenal cortex.
The compound of the present invention (10⁻⁹M to 3 × 10⁻⁵M ) and ¹²⁵I-A-II (1.85 kBq/50 µ l) were added to the receptor membrane fraction, and the mixture was incubated at room temperature for one hour. The receptor-bound and free ¹²⁵I-A-II were separated through a filter (Whatman GF/B filter), and the radioactivity of ¹²⁵I-A-II bound to the receptor was measured.

[1] = system: A-II-induced pressor action; test: Inhibitory effect on pressor action of A-II in rats after oral administration; assay type: in vivo, Jcl : SD rats; conditions: Rattus norvegicus, p.o., A-II 100 ng/kg intravenous, male SD rats, read-out: Pressor Response (30 mg/Kg, p.o.)
Description: Jcl : SD rats (9 week old, male) were used. On the day previous to the experiment, these animals were applied with cannulation into the femoral artery and vein under anesthesia with pentobarbital Na. The animals were fasted but allowed to access freely to drinking water until the experiment was started. Just on the day of conducting the experiment, the artery cannula was connected with a blood-pressure transducer, and the average blood pressure was recorded by means of polygraph. Before administration of the drug, the pressor action due to intravenous administration of A-II (100 ng/kg) as the control was measured. The drugs were orally administered, and then, at each point of the measurement, A-II was administered intravenously, and the pressor action was similarly measured. By comparing the pressor action before and after administration of the drug, the percent inhibition by the drug on A-II-induced pressor action was evaluated.

Row | SMILES | IC50 (A-II-receptor) [µM] | inhibition in vivo at 30 mg/kg [1] [%]
1 | CCOC(=O)c1cn(Cc2ccc(-c3ccccc3-c3nn[nH]n3)cc2)c2sc(C#N)cc2c1=O [compound 20] | 0.67 | 
2 | CCc1cc2c(=O)c(C(=O)NCc3cccc(F)c3)cn(Cc3ccc(-c4ccccc4-c4nn[nH]n4)cc3)c2s1 [compound 24] | 0.19 | ≥ 70
3 | CCc1cc2c(=O)c(C(=O)NCc3ccccn3)cn(Cc3ccc(-c4ccccc4-c4nn[nH]n4)cc3)c2s1 [compound 30] | 0.02 | ≥ 70
4 | CCc1cc2c(=O)c(C(=O)O)cn(Cc3ccc(-c4ccccc4-c4nn[nH]n4)cc3)c2s1 [compound 10] | 0.04 | 50 to 70
5 | CCOC(=O)c1cn(Cc2ccc(-c3ccccc3C(=O)O)cc2)c2sc(CC)cc2c1=O [compound 11] | 0.21 | 
6 | CCc1cc2c(=O)c(C(=O)OCC(C)C)cn(Cc3ccc(-c4ccccc4-c4nn[nH]n4)cc3)c2s1 [compound 7] | 0.17 | 
7 | CCc1cc2c(=O)c(C(N)=O)cn(Cc3ccc(-c4ccccc4-c4nn[nH]n4)cc3)c2s1 [compound 13] | 0.02 | 
8 | CCc1cc2c(=O)c(C(=O)NCc3ccccc3)cn(Cc3ccc(-c4ccccc4-c4nn[nH]n4)cc3)c2s1 [compound 12] | 0.06 | ≥ 70
9 | CCOC(=O)c1cn(Cc2ccc(-c3ccccc3-c3nn[nH]n3)cc2)c2sc(CC)cc2c1=O [compound 2] | 0.05 | 
10 | CCc1cc2c(=O)c(C(=O)NCc3ccccc3C)cn(Cc3ccc(-c4ccccc4-c4nn[nH]n4)cc3)c2s1 [compound 29] | 0.12 | ≥ 70
11 | CCc1cc2c(=O)c(C(=O)NCc3ccccc3OC)cn(Cc3ccc(-c4ccccc4-c4nn[nH]n4)cc3)c2s1 [compound 21] | 0.25 | ≥ 70
12 | CCCc1cc2c(=O)c(C(=O)OCC)cn(Cc3ccc(-c4ccccc4-c4nn[nH]n4)cc3)c2s1 [compound 6] | 0.09 | 
13 | CCOC(=O)c1cn(Cc2ccc(-c3ccccc3-c3nn[nH]n3)cc2)c2sc(C)cc2c1=O [compound 5] | 0.05 | 
14 | CCOC(=O)c1cn(Cc2ccc(-c3ccccc3-c3nn[nH]n3)cc2)c2sccc2c1=O [compound 4] | 0.2 | 
15 | CCc1cc2c(=O)c(C(=O)Nc3ccccc3)cn(Cc3ccc(-c4ccccc4-c4nn[nH]n4)cc3)c2s1 [compound 16] | 0.12 | ≥ 70
16 | CCc1cc2c(=O)c(C(=O)NC(C)c3ccccc3)cn(Cc3ccc(-c4ccccc4-c4nn[nH]n4)cc3)c2s1 (stereo not shown) [compound 25] | 0.78 | ≥ 70
17 | CCc1cc2c(=O)c(C(=O)NCc3ccccc3F)cn(Cc3ccc(-c4ccccc4-c4nn[nH]n4)cc3)c2s1 [compound 26] | 0.21 | ≥ 70
18 | CCc1cc2c(=O)c(C(=O)NCCO)cn(Cc3ccc(-c4ccccc4-c4nn[nH]n4)cc3)c2s1 [compound 15] | 0.05 | 
19 | CCc1cc2c(=O)c(C(=O)NCc3ccc(C)cc3)cn(Cc3ccc(-c4ccccc4-c4nn[nH]n4)cc3)c2s1 [compound 28] | 0.22 | 50 to 70
20 | CCc1cc2c(=O)c(C(=O)OCCOC)cn(Cc3ccc(-c4ccccc4-c4nn[nH]n4)cc3)c2s1 [compound 8] | 0.01 | 
21 | CCc1cc2c(=O)c(C(=O)NCC(C)C)cn(Cc3ccc(-c4ccccc4-c4nn[nH]n4)cc3)c2s1 [compound 14] | 0.13 | 
22 | CCOC(=O)c1cn(Cc2ccc(-c3ccccc3-c3nn[nH]n3)cc2)c2sc(Br)cc2c1=O [compound 3] | 0.07 | 
23 | CCc1cc2c(=O)c(C(=O)NCc3ccc(F)cc3)cn(Cc3ccc(-c4ccccc4-c4nn[nH]n4)cc3)c2s1 [compound 23] | 0.17 | ≥ 70
